Laboratory results: ChEMBL document CHEMBL5729557, “5-membered heteroaryl carboxamide compounds for treatment of HBV” (2023)

test: Assay Measuring Activity of Test Compounds on Viral Production from HepAD38 Cells: HepAD38 cells grown in a T-150 flask (Corning, cat #: 430825) with Growth Medium (DMEM/F12 (1:1) (Hyclone, cat #: SH30023.02), 1× Pen/Strep (Invitrogen, cat #: 15140-122), 10% FBS (Tissue Culture Biologics, cat #: 101), 250 μg/mL G418 (Alfa Aesar, cat #: J62671), 1 μg/mL Tetracycline (Teknova, cat #: T3320)) were detached with 0.25% trypsin-EDTA to (Invitrogen, cat #: 25200-056). Tetracycline-free treatment medium (15 mL DMEM/F12 (1:1) 1× Pen/step, with 2% FBS, Tet-system approved (Clontech, cat #: 631106) were then added to mix, transferred into a 50 ml conical tube (Falcon, cat #: 21008-918,) and spun at 1300 rpm for 5 min. Pelleted cells were then re-suspended/washed with 50 mL of 1×DPBS (Invitrogen, cat #: 14190-136) 2 times and 50 mL treatment medium twice. HepAD38 cells were then re-suspended with 10 mL of treatment medium, syringed and counted. Wells of 96-well clear bottom TC plate (Corning, cat #: 3904,) were seeded at 50,000 cells/well in 180 μL of treatment medium, and 20 μL of either 10% DMSO (Sigma, cat #: D4540) as controls or a 10× solution of test compounds in 10% DMSO in treatment media was added for a final compound concentration starting at 10 μM, and plates were incubated in 5% CO2 incubator at 37° C. for 5 days.Subsequently viral load production was assayed by quantitative PCR (qPCR) of the HBV core sequence. PCR reaction mixture containing forward primers HBV-f 5′-CTGTGCCTTGGGTGGCTTT-3′ (IDT DNA), Reverse primers HBV-r 5′-[…]-3′ (IDT DNA), Fluorescent TaqMan™ Probes HBV-probe 5′-FAM/AGCTCCAAA/ZEN/[…]/3IABkFQ-3′ (IDT DNA), 10 μL/well of PerfeCTa® qPCR ToughMix® (Quanta Biosciences, Cat #: 95114-05K), and 6 μL/well of DEPC water (Alfa Aesar, cat #: J62087) was prepared. […] of supernatant was added to 16 μL of the reaction mixture in a qPCR plate (Applied Biosytems, Cat #: 4309849), sealed with a film (Applied Biosystems, Cat #: 4311971), centrifuged for a few seconds, and subsequently run on an Applied Biosystems VIIA7. The PCR mixture was incubated at 45° C. for 5 min, then 95° C. for 10 min, followed by 40 cycles of 10 seconds at 95° C. and 20 seconds at 60° C. Viral load was quantified against known HBV DNA standards by using ViiA™ 7 Software. Viral load in the supernatant from wells with treated cells were compared against viral load in supernatant from DMSO control wells (>3 per plate). Cell viability assay was performed with CellTiter-Glo Luminescent Cell Viability Assay (Promega, cat #: G7573) with modification. Mixed appropriate amount of CellTiter-Glo (CTG) 1×DPBS in a 1:1 ratio, added 100 uL of the mixture to each well followed completely removal of all supernatant in each well without touching cell surface. Incubated the plate at room temperature for 10 min on an orbital shaker, and then read the plate with a plate reader (TECAN M1000 or Envision).; details: HePAD38

Structure (SMILES)	EC50
Cn1nc([C@@H]2CC3CC(O)(CC(=O)O)C[C@H]3C2)c(C(=O)Nc2ccc(F)c(Cl)c2)c1N (stereo partly specified)	< 100 nM
COc1cc(-c2ncc[nH]2)ccc1[C@H]1CC[C@@H](c2nn(C)c(N)c2C(=O)Nc2ccc(F)c(Cl)c2)C1	in the range around 5250 nM
Cn1nc([C@@H]2CC3CC(O)(CS(=O)(=O)CCO)C[C@@H]3C2)c(C(=O)Nc2ccc(F)c(Cl)c2)c1N (stereo partly specified)	< 100 nM
Cn1nc([C@H]2CC[C@@H](c3ccccc3)C2)c(C(=O)Nc2ccc(F)c(Cl)c2)c1N	< 100 nM
Cn1nc(C2CC3CC(OCC(F)(F)F)CC3C2)c(C(=O)Nc2ccc(F)c(Cl)c2)c1N (stereo unspecified)	< 100 nM
CCSC1CC2CC(c3nn(C)c(N)c3C(=O)Nc3ccc(F)c(Cl)c3)CC2C1 (stereo unspecified)	< 100 nM
Cn1nc(C2CC3CCCC3C2)c(C(=O)Nc2ccc(F)c(Cl)c2)c1N (stereo unspecified)	< 100 nM
Cn1nc([C@H]2C[C@H](c3ccccc3)C2)c(C(=O)Nc2ccc(F)c(Cl)c2)c1N	in the range around 300 nM
Cn1nc([C@@H]2CC3C[S+]([O-])C[C@@H]3C2)c(C(=O)Nc2ccc(F)c(Cl)c2)c1N (stereo partly specified)	in the range around 5250 nM
CCOC(=O)CC1CC2CC(c3nn(C)c(N)c3C(=O)Nc3ccc(F)c(Cl)c3)CC2C1 (stereo unspecified)	< 100 nM
Cn1nc([C@@H]2CC3CC(O)(CS(=O)(=O)C(C)(C)C)C[C@H]3C2)c(C(=O)Nc2ccc(F)c(Cl)c2)c1N (stereo partly specified)	< 100 nM
Cn1nc([C@@H]2CC3CC(O)(C[S+]([O-])CC(F)(F)F)C[C@@H]3C2)c(C(=O)Nc2ccc(F)c(Cl)c2)c1N (stereo partly specified)	< 100 nM
Cn1nc([C@@H]2CC3CC(O)(CN4CCOCC4)C[C@@H]3C2)c(C(=O)Nc2ccc(F)c(Cl)c2)c1N (stereo partly specified)	in the range around 5250 nM
COc1cc(-c2c[nH]cn2)ccc1[C@@H]1CC[C@@H](c2nn(C)c(N)c2C(=O)Nc2ccc(F)c(Cl)c2)C1	< 100 nM
Cn1nc(C2CC3CC4(CC3C2)OCCO4)c(C(=O)Nc2ccc(F)c(Cl)c2)c1N (stereo unspecified)	< 100 nM
Cn1nc(C2CC3CC(O)(C4CC4)CC3C2)c(C(=O)Nc2ccc(F)c(Cl)c2)c1N (stereo unspecified)	< 100 nM
Cn1nc(C2CC3CC(C#N)CC3C2)c(C(=O)Nc2ccc(F)c(Cl)c2)c1N (stereo unspecified)	< 100 nM
CC(=O)Nc1ccc(C2CCC(c3nn(C)c(N)c3C(=O)Nc3ccc(F)c(Cl)c3)C2)cc1 (stereo unspecified)	< 100 nM

Structure (SMILES)	EC50
CC(C)C1(O)CC2C[C@@H](c3nn(C)c(N)c3C(=O)Nc3ccc(F)c(Cl)c3)C[C@H]2C1O (stereo partly specified)	< 100 nM
CC(C)OCC1(O)CC2C[C@@H](c3nn(C)c(N)c3C(=O)Nc3ccc(F)c(Cl)c3)C[C@@H]2C1 (stereo partly specified)	in the range around 300 nM
COc1cc(C(O)NCCN)ccc1C1CCC(c2nn(C)c(N)c2C(=O)Nc2ccc(F)c(Cl)c2)C1 (stereo unspecified)	in the range around 300 nM
COc1cc(-c2c[nH]cn2)ccc1[C@H]1CC[C@@H](c2nn(C)c(N)c2C(=O)Nc2ccc(F)c(Cl)c2)C1	in the range around 300 nM
Cn1nc(C2CC3CC(C(=O)O)CC3C2)c(C(=O)Nc2ccc(F)c(Cl)c2)c1N (stereo unspecified)	< 100 nM
Cn1nc(C2CC3CC(C(N)=O)CC3C2)c(C(=O)Nc2ccc(F)c(Cl)c2)c1N (stereo unspecified)	< 100 nM
Cn1nc([C@@H]2CC3CC(O)(CS(C)(=O)=O)C[C@H]3C2)c(C(=O)Nc2ccc(F)c(Cl)c2)c1N (stereo partly specified)	< 100 nM
CCS(=O)(=O)C1CC2CC(c3nn(C)c(N)c3C(=O)Nc3ccc(F)c(Cl)c3)CC2C1 (stereo unspecified)	< 100 nM
CC[S+]([O-])C1CC2CC(c3nn(C)c(N)c3C(=O)Nc3ccc(F)c(Cl)c3)CC2C1 (stereo unspecified)	< 100 nM
CCN(CC)C1CC2CC(c3nn(C)c(N)c3C(=O)Nc3ccc(F)c(Cl)c3)CC2C1 (stereo unspecified)	in the range around 300 nM
Cn1nc(C2CC3CC(O)(C(C)(C)O)CC3C2)c(C(=O)Nc2ccc(F)c(Cl)c2)c1N (stereo unspecified)	< 100 nM
CCOC(=O)C=C1CC2CC(c3nn(C)c(N)c3C(=O)Nc3ccc(F)c(Cl)c3)CC2C1 (stereo unspecified)	< 100 nM
Cn1nc([C@H]2CC3CC(=NO)C[C@@H]3C2)c(C(=O)Nc2ccc(F)c(Cl)c2)c1N (stereo partly specified)	< 100 nM
CCOC(=O)c1c(C2CCC(c3ccccc3)C2)noc1N (stereo unspecified)	in the range around 300 nM
Cn1nc(C2CC3CC(N4CCNC4=O)CC3C2)c(C(=O)Nc2ccc(F)c(Cl)c2)c1N (stereo unspecified)	< 100 nM
Cn1nc(C2CC3CC(O)(CS(=O)(=O)CCCN4CCNC(=O)C4)CC3C2)c(C(=O)Nc2ccc(F)c(Cl)c2)c1N (stereo unspecified)	in the range around 5250 nM
Cn1nc(C2CC3CC(CCO)CC3C2)c(C(=O)Nc2ccc(F)c(Cl)c2)c1N (stereo unspecified)	< 100 nM
COC1CC2CC(c3nn(C)c(N)c3C(=O)Nc3ccc(F)c(Cl)c3)CC2C1 (stereo unspecified)	< 100 nM
